For orientation: CC50 means the concentration that lowers cell viability or growth by half. In general, IC50 refers to the concentration that inhibits the measured activity by half. The EC50 is the concentration at which the effect is half-maximal. Broadly, the AC50 is the concentration at which the activity in the assay is half-maximal.

The structures appear in SMILES notation. Active and inactive are the calls of the source.

Assay [1] can be described thus: A Cell Based Secondary Assay To Explore Cytotoxicity of Compounds that Sensitize Mycobacterium Tuberculosis to Beta-Lactam Antibiotics. It is filed as functional.
Assay [2] is described as follows: antiviral protection against BTV-induced cell death – arbovirus, BSR cells, confirmation (AID 1250).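 Further: protection from viral cytopathic effect measured as cell viability by ATP luminescence.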 It is filed as functional.
Assay [3] deals with Vero. Put plainly: cells. It is filed as functional, cell-based. Conditions: Chlorocebus sabaeus.
Assay [4] has as its system Vero. As to the kind of experiment: cells. To be noted: Chlorocebus sabaeus. It is filed as functional.
Assay [5] has as its target Luciferin 4-monooxygenase (Photinus pyralis, UniProt P08659). Put plainly: Counter Screen for Luciferase-based Assay Positives. [Related pubchem assays: 620, 618, 411 ]. For orientation: The purpose of a counterscreen is to sort out artefacts and off-target activity.
Assay [6] relates to HT-1080. As to the kind of experiment: HT1080 cell viability loss – fluorescence readout (AID 620). It is filed as functional, cell-based. To be noted: Homo sapiens.
The target of assay [7] is T1, NADPH oxidase 1 (Homo sapiens, UniProt Q9Y5S8).
T1 sequence (Q9Y5S8 whole entry): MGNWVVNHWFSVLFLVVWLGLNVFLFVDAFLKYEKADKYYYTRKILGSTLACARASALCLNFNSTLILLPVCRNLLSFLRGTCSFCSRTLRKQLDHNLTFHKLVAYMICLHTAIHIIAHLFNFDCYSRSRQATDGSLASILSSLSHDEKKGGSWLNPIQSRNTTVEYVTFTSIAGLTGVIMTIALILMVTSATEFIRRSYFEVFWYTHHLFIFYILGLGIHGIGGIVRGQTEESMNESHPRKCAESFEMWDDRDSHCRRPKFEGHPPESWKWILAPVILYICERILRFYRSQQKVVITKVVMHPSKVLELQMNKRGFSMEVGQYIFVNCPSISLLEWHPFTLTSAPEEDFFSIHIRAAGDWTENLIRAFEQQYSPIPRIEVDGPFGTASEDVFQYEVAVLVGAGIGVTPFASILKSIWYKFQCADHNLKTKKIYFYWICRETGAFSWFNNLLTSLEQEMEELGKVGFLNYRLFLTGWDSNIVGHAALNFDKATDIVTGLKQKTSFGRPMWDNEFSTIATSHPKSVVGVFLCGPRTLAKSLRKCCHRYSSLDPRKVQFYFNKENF
Put plainly: Luminescence-based cell-based dose response assay to identify inhibitors of NADPH oxidase 1 (NOX1). It is filed as functional.

Assay [8] is described as follows: cells. It is filed as functional, cell-based.
Assay [9] deals with T2, Nuclear receptor subfamily 0 group B member 1 (Homo sapiens, UniProt P51843).
T2 sequence (P51843 whole entry): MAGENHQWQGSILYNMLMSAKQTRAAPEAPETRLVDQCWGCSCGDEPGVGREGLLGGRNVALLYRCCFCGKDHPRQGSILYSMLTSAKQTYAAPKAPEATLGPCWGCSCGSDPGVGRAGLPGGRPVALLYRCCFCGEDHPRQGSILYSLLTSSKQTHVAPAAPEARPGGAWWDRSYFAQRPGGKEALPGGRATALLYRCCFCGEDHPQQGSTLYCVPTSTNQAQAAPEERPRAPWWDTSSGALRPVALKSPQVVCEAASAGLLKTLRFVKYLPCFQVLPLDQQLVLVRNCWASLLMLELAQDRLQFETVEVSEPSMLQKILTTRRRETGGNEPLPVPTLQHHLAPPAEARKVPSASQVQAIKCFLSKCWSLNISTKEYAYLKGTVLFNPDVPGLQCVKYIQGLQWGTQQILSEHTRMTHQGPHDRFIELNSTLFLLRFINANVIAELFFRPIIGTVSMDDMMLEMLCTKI
It is filed as functional, cell-based.

The nature of assay [10]: blockers of bursicon-stimulated LGR2 cAMP reporter – cell-based, HEK293, CRE-luciferase reporter, cherry pick, set 2, dose response (AID 743343).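 Further: transfected cells were stimulated with diluted bursicon conditioned medium after compound addition.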 It is filed as functional. In general terms: In a reporter assay the amount or activity of a reporter protein is the signal.
Assay [11] in a line: blockade of melanocortin 4 receptor signaling – cell-based, plate reader, cherry pick, counter-screen for LGR2 antagonist project, dose response (AID 743444).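 Further: transfected HEK 293 cells stimulated with alpha-MSH peptide; potency of inhibitors of the alpha-MSH evoked signal.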 It is filed as functional.
Assay [12] deals with BJ. As to the kind of experiment: BJ-TERT fibroblast viability loss – cell-based, RAS-independent, luminescence, dose response (AID 1933). Conditions: Homo sapiens. It is filed as functional.
Assay [13] deals with BJ. Put plainly: cells. It is filed as functional, cell-based. Conditions: Homo sapiens.
Assay [14] in a line: Luminescence-based dose response cell-based high throughput screening assay for cytotoxic compounds using the IEC-6 intestinal epithelial cell line. [Related pubchem assays: 1858 (Summary AID.), 1825 (Counterscreen.), 1907 (Confirmation screen.)]. It is filed as functional.
Assay [15] deals with BJ. As to the kind of experiment: BJ-TERT-LT-ST fibroblast viability loss – cell-based, RAS-independent, luminescence, dose response (AID 1935).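 Further: BJ fibroblasts immortalized with TERT plus LT and ST oncogenes.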 It is filed as functional. To be noted: Homo sapiens.
The nature of assay [16]: DRD fibroblast viability loss – cell-based, non-viral oncogenic, luminescence, dose response (AID 1934). It is filed as functional. To be noted: Homo sapiens.
Assay [17] is described as follows: HEK-293T viability loss after treatment – luminescence, T-cell screen hits, cytotoxicity control for TCR NF-kB inhibitor project, dose response (AID 489026).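 Further: cells exposed to compound about 14 hours before the viability readout.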 It is filed as functional, cell-based.
In assay [18] the test system is BJ. As to the kind of experiment: growth inhibition of engineered Ras-driven BJ cells – cell-based, alamar blue fluorescence, cherrypicked samples, dose response (AID 2631).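 Further: confirmatory dose-response assay in RAS-dependent BJ fibroblasts engineered with TERT, LT and ST, with cytotoxicity read by fluorescence.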 It is filed as functional. Conditions: Homo sapiens. For orientation: Alamar Blue is a resazurin reagent that responds to reducing activity.
Assay [19] concerns the target Peroxisome proliferator-activated receptor gamma/Nuclear receptor coactivator 2 (Homo sapiens, UniProt P37231). It is filed as functional.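 Further: agonist potency for raising coactivator recruitment to the receptor.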
In assay [20] the target is Peroxisome proliferator-activated receptor gamma/Nuclear receptor coactivator 1 (Homo sapiens, UniProt P37231). It is filed as functional.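 Further: agonist potency as compounds enhance coactivator SRC-1 recruitment to PPARgamma.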
Peroxisome proliferator-activated receptor gamma/Nuclear receptor coactivator 1, sequence (P37231 whole entry): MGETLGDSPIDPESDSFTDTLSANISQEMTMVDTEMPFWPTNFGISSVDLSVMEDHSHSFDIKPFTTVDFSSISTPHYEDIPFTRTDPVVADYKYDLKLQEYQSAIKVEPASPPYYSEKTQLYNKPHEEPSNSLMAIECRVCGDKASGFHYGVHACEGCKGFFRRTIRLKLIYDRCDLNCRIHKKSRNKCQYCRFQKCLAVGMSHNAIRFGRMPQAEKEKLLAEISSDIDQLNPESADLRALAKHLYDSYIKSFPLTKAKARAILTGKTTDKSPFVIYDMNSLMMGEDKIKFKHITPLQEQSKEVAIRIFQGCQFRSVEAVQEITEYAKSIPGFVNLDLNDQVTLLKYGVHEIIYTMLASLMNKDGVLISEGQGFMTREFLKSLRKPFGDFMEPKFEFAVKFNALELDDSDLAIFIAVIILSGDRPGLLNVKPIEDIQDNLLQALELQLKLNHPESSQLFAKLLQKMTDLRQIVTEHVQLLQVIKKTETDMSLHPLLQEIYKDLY
Peroxisome proliferator-activated receptor gamma/Nuclear receptor coactivator 1, sequence (Q15788 whole entry, further chain): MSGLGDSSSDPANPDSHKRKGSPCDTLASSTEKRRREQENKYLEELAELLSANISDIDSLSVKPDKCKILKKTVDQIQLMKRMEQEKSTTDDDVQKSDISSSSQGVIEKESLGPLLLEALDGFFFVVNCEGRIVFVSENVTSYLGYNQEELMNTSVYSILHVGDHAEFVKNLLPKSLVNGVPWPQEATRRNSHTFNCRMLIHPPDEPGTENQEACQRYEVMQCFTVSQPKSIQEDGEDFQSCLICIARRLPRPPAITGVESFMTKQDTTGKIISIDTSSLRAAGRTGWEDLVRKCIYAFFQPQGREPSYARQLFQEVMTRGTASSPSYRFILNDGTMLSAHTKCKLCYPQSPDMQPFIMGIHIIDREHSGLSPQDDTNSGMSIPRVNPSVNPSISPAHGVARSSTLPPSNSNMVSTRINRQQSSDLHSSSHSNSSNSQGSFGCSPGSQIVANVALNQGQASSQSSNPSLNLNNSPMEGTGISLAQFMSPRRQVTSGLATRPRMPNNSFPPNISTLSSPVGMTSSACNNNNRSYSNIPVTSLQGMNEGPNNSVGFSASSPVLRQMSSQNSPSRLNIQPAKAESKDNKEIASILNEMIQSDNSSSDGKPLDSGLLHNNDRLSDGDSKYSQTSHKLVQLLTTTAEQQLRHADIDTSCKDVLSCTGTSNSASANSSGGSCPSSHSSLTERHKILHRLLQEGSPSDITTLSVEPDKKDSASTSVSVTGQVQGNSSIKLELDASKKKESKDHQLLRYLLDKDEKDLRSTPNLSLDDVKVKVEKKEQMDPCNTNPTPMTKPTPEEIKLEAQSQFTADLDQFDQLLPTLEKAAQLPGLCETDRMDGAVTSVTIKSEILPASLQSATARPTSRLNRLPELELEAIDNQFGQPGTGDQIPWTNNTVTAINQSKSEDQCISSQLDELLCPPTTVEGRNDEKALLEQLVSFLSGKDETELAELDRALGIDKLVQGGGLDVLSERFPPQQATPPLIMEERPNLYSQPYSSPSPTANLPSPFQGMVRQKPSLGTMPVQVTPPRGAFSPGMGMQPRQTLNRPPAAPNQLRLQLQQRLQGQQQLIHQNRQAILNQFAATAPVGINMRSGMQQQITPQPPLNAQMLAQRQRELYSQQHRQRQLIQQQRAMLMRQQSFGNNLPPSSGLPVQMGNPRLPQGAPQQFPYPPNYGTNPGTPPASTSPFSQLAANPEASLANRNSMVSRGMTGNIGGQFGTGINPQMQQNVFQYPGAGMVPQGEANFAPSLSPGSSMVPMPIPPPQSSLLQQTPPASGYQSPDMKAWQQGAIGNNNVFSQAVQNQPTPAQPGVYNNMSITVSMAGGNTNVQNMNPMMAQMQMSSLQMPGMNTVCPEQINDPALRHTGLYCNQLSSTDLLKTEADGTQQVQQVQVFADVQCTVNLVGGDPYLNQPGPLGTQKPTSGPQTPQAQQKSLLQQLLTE
In assay [21] the target is Peroxisome proliferator-activated receptor gamma/Nuclear receptor coactivator 3 (Homo sapiens, UniProt P37231). It is filed as functional.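 Further: agonist potency for raising coactivator recruitment to the receptor.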
Peroxisome proliferator-activated receptor gamma/Nuclear receptor coactivator 3, sequence (P37231 whole entry): as the sequence (P37231 whole entry) above
Peroxisome proliferator-activated receptor gamma/Nuclear receptor coactivator 3, sequence (Q9Y6Q9 whole entry, further chain): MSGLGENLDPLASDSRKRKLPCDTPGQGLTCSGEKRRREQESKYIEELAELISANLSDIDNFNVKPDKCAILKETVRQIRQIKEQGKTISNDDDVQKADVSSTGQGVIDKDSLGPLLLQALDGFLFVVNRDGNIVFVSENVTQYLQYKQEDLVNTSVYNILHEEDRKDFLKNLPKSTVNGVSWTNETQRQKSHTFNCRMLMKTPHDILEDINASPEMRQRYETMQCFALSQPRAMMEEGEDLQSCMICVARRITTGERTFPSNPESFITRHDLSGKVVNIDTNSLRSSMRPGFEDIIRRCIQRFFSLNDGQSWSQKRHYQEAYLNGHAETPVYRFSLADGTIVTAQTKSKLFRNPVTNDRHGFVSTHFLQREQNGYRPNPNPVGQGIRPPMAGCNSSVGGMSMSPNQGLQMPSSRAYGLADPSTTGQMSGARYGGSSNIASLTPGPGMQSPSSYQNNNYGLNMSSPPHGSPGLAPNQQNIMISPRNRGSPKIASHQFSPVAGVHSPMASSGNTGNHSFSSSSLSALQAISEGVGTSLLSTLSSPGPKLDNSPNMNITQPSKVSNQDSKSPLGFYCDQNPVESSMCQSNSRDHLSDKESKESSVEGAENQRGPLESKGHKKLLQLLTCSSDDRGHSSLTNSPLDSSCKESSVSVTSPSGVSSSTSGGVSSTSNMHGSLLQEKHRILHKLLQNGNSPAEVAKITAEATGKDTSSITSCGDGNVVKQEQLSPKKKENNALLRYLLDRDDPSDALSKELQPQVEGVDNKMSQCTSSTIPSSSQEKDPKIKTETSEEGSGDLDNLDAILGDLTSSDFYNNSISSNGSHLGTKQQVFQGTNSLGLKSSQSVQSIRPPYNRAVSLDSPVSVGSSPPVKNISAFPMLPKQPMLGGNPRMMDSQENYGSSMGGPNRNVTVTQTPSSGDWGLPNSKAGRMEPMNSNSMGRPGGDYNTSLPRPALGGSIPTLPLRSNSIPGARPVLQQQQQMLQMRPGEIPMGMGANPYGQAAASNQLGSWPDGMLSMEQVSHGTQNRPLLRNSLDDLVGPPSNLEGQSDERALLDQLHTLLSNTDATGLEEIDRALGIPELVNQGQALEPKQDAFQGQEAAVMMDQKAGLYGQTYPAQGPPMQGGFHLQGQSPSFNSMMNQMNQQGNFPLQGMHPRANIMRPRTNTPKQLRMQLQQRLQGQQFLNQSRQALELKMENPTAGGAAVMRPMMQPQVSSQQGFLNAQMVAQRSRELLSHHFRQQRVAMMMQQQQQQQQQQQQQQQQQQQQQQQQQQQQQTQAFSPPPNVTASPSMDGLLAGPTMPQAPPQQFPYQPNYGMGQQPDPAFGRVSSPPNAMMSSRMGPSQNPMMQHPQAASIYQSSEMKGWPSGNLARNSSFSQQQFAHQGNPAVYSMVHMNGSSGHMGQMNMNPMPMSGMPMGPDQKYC
Assay [22] in a line: luciferase reporter signal suppression in cells – H4 neuroglioma cells, luminescence, dose response (AID 1990). It is filed as functional, cell-based.
Assay [23] can be described thus: alpha-synuclein stem-loop luciferase translation blockers – H4 neuroglioma cells, luminescence, confirmation (AID 1988). It is filed as functional, cell-based.
The target of assay [24] is T3, Mannose-6-phosphate isomerase (Homo sapiens, UniProt P34949).
T3 sequence (P34949 whole entry): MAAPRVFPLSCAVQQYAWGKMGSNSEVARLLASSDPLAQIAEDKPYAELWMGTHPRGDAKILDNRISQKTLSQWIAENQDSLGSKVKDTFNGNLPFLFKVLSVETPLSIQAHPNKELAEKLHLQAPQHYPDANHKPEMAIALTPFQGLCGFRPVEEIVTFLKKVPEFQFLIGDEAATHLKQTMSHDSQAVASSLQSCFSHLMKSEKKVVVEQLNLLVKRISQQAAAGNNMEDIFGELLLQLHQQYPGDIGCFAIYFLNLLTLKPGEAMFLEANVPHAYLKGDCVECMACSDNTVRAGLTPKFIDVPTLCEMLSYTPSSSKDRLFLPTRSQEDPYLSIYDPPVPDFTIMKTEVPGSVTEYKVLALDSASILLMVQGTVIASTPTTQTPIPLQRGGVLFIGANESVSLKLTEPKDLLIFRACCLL
Put plainly: MPI enzyme activity inhibition – biochemical, fluorescence intensity, coupled assay, primary screen (AID 1209).

Assay [25] can be described thus: viability of PTEN-deleted HCT116 cells – cell-based, HCT116 PTEN knockout, dose response (AID 1047).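 Further: HCT116 colon tumor cells with PTEN knocked out; cells exposed to compound for 60 hours before readout; potency for loss of cell viability measured by luminescence.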 It is filed as functional.
Assay [26] can be described thus: viability of HCT116 lacking mutant beta-catenin – cell-based, human colon tumor, dose response (AID 1045).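 Further: HCT116 colon tumor cells with beta catenin knocked out; cells exposed to compound for 60 hours.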 It is filed as functional.
In assay [27] the target is T3, Mannose-6-phosphate isomerase. Put plainly: MPI inhibition at elevated mannose 6-phosphate – biochemical, fluorescence intensity, high mannose 6-phosphate, primary screen (AID 1220).
In assay [28] the target is Cytochrome P450 2C19 (Homo sapiens, UniProt P33261). As to the kind of experiment: Cytochrome panel assay with activity outcomes. Panel member name: p450-cyp2c19 Compounds with AC50 equal or less than 10 uM are considered active. It is filed as functional. To be noted: read-out: AC50.
Cytochrome P450 2C19, sequence (P33261 whole entry): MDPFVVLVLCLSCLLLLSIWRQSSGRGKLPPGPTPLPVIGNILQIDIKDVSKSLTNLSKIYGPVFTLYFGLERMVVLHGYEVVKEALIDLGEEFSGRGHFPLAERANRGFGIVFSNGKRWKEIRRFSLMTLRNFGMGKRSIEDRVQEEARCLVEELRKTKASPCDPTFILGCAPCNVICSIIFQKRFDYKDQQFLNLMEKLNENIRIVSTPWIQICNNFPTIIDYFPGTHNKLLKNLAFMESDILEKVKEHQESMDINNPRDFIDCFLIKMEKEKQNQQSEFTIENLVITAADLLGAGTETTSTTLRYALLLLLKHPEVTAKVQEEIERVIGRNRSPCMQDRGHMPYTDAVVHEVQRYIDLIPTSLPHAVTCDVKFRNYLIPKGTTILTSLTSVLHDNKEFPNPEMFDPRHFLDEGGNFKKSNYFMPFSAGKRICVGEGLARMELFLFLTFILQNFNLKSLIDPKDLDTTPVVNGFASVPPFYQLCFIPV
A short description of assay [29]: Luminescence Cell-Based Dose Response HTS to Identify Inhibitors of 5'UTR Stem-Loop Driven Prion Protein mRNA Translation in H4 Neuroglioblastoma Cells. [Related pubchem assays: 1827 (Project Summary), 1813 (Primary HTS)]. It is filed as functional.
A short description of assay [30]: HEK-293T cell viability reduction – luminescence, B-cell screen hits, cytotoxicity control for BCR NF-kB inhibitor project, dose response (AID 489021).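 Further: HEK-293T cells carrying an NF-kB luciferase reporter; cells exposed to compound for about 14 hours before viability readout.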 It is filed as functional, cell-based.
Assay [31] deals with INS1. Put plainly: INS-1E survival protection against cytokine death – cell-based, luminescence, retest, dose response (AID 449756).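 Further: cell death triggered by IL-1 beta plus TNF-alpha plus IFN-gamma mixture; protective hits raise ATP signal compared with cytokine alone wells.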 To be noted: Rattus norvegicus. It is filed as functional.

Luciferin 4-monooxygenase, sequence (P08659 whole entry): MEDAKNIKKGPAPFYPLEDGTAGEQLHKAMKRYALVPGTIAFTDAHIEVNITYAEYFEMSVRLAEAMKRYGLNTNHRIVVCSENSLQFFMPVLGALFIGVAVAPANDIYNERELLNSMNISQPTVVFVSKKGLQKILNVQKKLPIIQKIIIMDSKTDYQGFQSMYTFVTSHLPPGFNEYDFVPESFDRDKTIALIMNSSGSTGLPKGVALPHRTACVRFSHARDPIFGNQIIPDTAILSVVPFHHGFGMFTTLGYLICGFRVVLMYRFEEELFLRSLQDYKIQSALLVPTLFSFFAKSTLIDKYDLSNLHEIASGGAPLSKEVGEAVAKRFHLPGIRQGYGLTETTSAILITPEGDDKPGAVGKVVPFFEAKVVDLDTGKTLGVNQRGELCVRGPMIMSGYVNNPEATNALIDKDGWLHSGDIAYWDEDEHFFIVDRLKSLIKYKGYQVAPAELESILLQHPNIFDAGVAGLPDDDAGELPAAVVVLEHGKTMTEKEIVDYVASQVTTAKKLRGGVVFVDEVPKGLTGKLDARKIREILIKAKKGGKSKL

`CS(=O)(=O)N(Cc1ccccc1)c1ccc(C(=O)N2CCN(c3cccc(Cl)c3)CC2)cc1`: the CC50 in [1] was > 40 µM (active).
Take `CCc1ccc(CC2S/C(=C(\C#N)C(C)=O)NC2=O)cc1` (stereo unspecified): the IC50 in [2] was 27.9 µM (active); in assay [3] it was 13.2 µM (active). The CC50 in [4] is > 25 µM (active).
For the compound `Cc1ccccc1NC(=O)c1cnc2ccccn2c1=O`, the values for the EC50 in assay [5] and in assay [6] were 46.4 µM (active) and > 50 µM (not active), respectively.
For `CC(=O)N1c2ccccc2S(=O)(=O)c2ccccc21`, the IC50 in [7] was > 20 µM (not active).
In the case of `CC(C)Nc1ncnc2c1cnn2-c1ccc(Cl)cc1`, the EC50 was 15.3 µM (active) in assay [5] and > 50 µM (not active) in assay [6]. Further, the IC50 in [8] and in assay [9] was > 67.5 µM (inactive) each time. The AC50 is 11.9 µM (active) in [10] and 13.3 µM (active) in [11].
For `CCOCCOC(=O)c1[nH]c2c(c1C)C(=O)CC(c1ccccc1)C2` (stereo unspecified), the EC50 in assay [12] was 0.851 µM (inconclusive); in assay [13] it was 12.6 µM (active); in [15], 0.756 µM (active); in [16], 1.29 µM (active); in assay [18], < 0.104 µM (inconclusive). In addition, the IC50 in [14] is 0.521 µM (active); in assay [17], > 80 µM (inactive).
In the case of `CC1CCc2c(sc3nc(SCC(=O)NCc4ccco4)nc(N)c23)C1` (stereo unspecified), the EC50 in assay [19], in assay [20] and in [21] was > 79.4 µM (not active) in each case.
Consider `O=C(C1=C[C@@H](c2ccc(Br)cc2)C[C@@H](OCCCCO)O1)N1CCN(Cc2ccc3c(c2)OCO3)CC1`, for which the EC50 is > 79.4 µM (not active) in assay [19]; > 79.4 µM (not active) in [20]; 16.3 µM (active) in assay [22]; > 79.4 µM (not active) in assay [21]; 20.5 µM (active) in assay [23].
For the compound `[O-][S+]1c2ccccc2Nc2ccccc21`, in assay [7], the IC50 was > 20 µM (not active).
As to `O=C(NCc1ccco1)c1cccn2c(=O)c3cc4ccccc4cc3nc12`, the IC50 in assay [24] and in [27] was > 50 µM (not active) each time. Besides, the EC50 in assay [25] is 12.4 µM (active); in assay [26], 10.7 µM (active).
Take `O=c1oc(-c2cccs2)nc2ccc(Br)cc12`: the IC50 in assay [2] is 28.9 µM (active). Further, in assay [28], the AC50 was 22.4 µM (inconclusive).
In the case of `COc1ccc(Cc2nc(-c3ccc(NC(=O)c4cccnc4)cc3)no2)cc1`, the EC50 is 11.2 µM (active) in assay [22]; > 150 µM (inconclusive) in assay [12]; 8.73 µM (active) in assay [29]; 5.99 µM (active) in assay [23]; 2.38 µM (active) in assay [13]; > 150 µM (not active) in [15]. Moreover, the EC50 was > 150 µM (not active) in [16] and 58.4 µM (active) in [18]. For the same compound, the IC50 in assay [14] was 0.649 µM (active); in [30], > 80 µM (inactive). The AC50 in assay [31] is < 0.195 µM (active).

These data come from ChEMBL document CHEMBL1201862, “PubChem BioAssay data set” (2004).
